pIC50, pKi: −log10 of the molar value.
Experiments:
Format in all cases: biochemical
hMMP 9 = molecular target: T1, hMMP 9 (Homo sapiens, UniProt P14780); assay: Residual enzyme activity of other metalloproteases; details: read-out: Residual enzyme activity MMP9; for remaining activity at 10 µM: 10 μM inhibitor; for remaining activity at 200 µM: 200 μM inhibitor
T1 construct: purchased R&D systems
Experimental: (§1) The determination of enzymatic activity was based on the cleavage of internally quenched peptide substrates. A typical assay of 250 μl total volume measured in black 96 well plates consisted of 100 μl buffer, 50 μl enzyme at a final concentration of 5e-8 M to 2e-10 M, 50 μl substrate (0.15 to 80 μM, in buffer, 0.5% DMSO) and 50 μl inhibitor solution (in buffer, 1% DMSO). In case of 125 μl assay volume (black 96 half area well plates) all volumes were cut in half. Enzymatic activity of ADAMs was measured in 384 well plates with 60 μl total assay volume consisting of 20 μl inhibitor, 20 μl buffer, 10 μl enzyme and 10 μl substrate.
MMPs were activated prior to measurement by APMA (p-aminophenylmercuric acetate) treatment according to manufacturer's instructions (R&D systems).

hADAM 10 = molecular target: T2, hADAM 10 (Homo sapiens, UniProt O14672); assay: Residual enzyme activity of other metalloproteases; details: read-out: Residual enzyme activity ADAM10; for remaining activity at 10 µM: 10 μM inhibitor; for remaining activity at 200 µM: 200 μM inhibitor
T2 construct: purchased R&D systems
T2 sequence (O14672 214-748): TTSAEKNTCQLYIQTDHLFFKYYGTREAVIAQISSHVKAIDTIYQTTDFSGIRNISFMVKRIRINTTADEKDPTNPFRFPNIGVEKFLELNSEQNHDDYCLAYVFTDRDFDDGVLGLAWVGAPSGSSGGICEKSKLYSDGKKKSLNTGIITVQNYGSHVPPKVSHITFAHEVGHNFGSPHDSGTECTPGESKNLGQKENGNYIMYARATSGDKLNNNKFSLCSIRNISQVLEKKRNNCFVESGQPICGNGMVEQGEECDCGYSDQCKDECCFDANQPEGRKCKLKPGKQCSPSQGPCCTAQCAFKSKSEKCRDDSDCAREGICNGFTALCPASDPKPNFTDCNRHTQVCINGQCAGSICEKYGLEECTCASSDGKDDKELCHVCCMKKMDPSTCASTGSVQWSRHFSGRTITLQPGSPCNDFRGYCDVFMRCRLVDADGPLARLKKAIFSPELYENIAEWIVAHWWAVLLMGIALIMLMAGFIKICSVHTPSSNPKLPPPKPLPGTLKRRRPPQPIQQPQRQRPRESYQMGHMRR
Experimental: as §1

hADAM 17 = molecular target: T3, hADAM 17 (Homo sapiens, UniProt P78536); assay: Residual enzyme activity of other metalloproteases; details: read-out: Residual enzyme activity ADAM17; for remaining activity at 10 µM: 10 μM inhibitor; for remaining activity at 200 µM: 200 μM inhibitor
T3 construct: purchased R&D systems
T3 sequence (P78536 215-824): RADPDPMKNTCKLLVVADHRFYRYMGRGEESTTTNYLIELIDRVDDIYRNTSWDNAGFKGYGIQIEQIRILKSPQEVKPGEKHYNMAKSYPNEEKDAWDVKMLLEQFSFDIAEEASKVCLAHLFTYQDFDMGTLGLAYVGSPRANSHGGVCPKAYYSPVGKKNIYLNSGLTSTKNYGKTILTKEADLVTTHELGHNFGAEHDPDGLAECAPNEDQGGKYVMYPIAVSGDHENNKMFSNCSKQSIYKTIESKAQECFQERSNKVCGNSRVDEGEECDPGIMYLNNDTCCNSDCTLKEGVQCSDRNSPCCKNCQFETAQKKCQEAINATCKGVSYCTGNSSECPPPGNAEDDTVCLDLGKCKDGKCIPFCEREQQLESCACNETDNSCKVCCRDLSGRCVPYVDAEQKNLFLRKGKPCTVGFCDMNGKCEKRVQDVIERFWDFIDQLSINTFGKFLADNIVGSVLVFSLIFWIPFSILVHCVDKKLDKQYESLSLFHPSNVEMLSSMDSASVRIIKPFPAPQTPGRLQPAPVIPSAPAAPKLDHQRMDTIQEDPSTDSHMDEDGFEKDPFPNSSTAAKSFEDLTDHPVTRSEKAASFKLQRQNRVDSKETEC
Experimental: as §1

hMeprin β = molecular target: T4, hMeprin β (Homo sapiens, UniProt Q16820); assay: Enzymatic assay, quenched peptide substrate cleavage, method B; details: geometric mean (geometric SD factor in parentheses); for pKi: Morrison's equation, read-out: Meprin beta Ki(app); for pIC50: read-out: Meprin beta IC50
T4 sequence (Q16820 62-701): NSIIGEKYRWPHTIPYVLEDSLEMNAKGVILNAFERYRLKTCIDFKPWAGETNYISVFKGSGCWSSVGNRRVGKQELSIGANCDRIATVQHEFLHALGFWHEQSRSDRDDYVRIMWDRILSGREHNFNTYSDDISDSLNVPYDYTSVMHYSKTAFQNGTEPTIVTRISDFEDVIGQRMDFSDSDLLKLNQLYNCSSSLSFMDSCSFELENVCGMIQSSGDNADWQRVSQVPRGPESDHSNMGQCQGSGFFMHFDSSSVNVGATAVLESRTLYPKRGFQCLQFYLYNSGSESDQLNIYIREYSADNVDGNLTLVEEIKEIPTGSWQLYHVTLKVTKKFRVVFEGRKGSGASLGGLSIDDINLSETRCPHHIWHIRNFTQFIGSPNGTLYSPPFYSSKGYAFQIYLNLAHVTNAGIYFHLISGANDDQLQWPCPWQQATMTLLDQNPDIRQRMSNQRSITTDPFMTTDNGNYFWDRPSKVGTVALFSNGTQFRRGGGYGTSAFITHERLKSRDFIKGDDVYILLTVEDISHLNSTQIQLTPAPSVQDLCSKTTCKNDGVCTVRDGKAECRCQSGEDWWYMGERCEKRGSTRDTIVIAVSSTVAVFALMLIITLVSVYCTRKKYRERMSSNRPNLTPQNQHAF
Outline: (§2)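 Cleavage of internally quenched peptides was read at 340/420 nm and 30° C., with enzyme at 5e-8 to 2e-10 M and substrate at 0.15–80 μM. Inhibitor solutions contained 1% DMSO and substrate 0.5% DMSO. Method B gave Ki(app) values via Morrison's equation, with kinetics measured in at least duplicate on separate days.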

hMeprin α = molecular target: T5, hMeprin α (Homo sapiens, UniProt Q16819); assay: as above; details: geometric mean (geometric SD factor in parentheses); for pKi: Morrison's equation, read-out: Meprin alpha Ki(app); for pIC50: read-out: Meprin alpha IC50
T5 sequence (Q16819 66-746): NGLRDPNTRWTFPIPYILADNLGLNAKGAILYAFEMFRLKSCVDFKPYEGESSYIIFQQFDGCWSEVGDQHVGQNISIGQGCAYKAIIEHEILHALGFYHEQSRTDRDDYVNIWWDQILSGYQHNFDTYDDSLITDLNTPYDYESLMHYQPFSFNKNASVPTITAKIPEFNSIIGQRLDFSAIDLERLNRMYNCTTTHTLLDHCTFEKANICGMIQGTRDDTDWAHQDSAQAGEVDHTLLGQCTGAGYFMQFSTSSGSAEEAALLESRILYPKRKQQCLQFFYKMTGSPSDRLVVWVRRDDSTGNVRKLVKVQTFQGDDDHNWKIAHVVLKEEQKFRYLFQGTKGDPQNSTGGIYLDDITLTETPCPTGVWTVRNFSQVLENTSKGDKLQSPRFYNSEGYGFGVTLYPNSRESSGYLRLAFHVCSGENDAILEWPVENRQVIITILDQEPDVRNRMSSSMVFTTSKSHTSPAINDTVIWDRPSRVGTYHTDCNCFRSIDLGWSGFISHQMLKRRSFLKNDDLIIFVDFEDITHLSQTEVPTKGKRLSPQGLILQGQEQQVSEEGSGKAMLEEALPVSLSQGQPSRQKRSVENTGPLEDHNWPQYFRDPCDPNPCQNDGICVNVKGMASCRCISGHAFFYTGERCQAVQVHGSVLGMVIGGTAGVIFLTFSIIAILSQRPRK
Outline: as §2

T1 sequence (P14780 107-707 limits assumed): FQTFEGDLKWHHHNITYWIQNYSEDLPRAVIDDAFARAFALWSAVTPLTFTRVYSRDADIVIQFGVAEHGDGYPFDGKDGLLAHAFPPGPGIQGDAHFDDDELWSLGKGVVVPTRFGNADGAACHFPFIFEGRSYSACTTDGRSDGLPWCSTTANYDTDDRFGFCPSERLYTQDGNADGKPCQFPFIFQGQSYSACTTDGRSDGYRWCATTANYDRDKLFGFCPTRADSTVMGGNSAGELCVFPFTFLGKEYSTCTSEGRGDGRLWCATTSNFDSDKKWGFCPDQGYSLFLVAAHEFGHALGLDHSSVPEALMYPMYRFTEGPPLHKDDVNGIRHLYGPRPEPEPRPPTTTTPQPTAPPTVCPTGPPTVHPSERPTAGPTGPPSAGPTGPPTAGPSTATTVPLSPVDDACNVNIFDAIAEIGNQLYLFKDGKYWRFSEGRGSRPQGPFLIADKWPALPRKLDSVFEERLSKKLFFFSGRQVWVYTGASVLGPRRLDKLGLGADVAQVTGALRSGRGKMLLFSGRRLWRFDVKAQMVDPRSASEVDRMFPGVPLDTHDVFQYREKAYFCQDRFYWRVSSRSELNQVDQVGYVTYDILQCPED

O=C(Cc1c(-c2ccccc2)nn(Cc2ccc(C(=O)O)cc2)c1-c1ccccc1)NO [Example 40, 4-[[4-(2-(Hydroxyamino)-2-oxo-ethyl]-3,5-diphenyl-1H-pyrazol-1-yl]methyl]benzoic acid] showed a remaining activity at 10 µM (hMMP 9) of 80%, a remaining activity at 200 µM (hMMP 9) of 30% and a remaining activity at 10 µM (hADAM 10) of 91%. The remaining activity at 200 µM (hADAM 10) was 43%, the remaining activity at 10 µM (hADAM 17) was 67% and the remaining activity at 200 µM (hADAM 17) was 9%. It also gave a pKi (hMeprin β) of 8.05, a pIC50 (hMeprin β) of 8.05 and a pKi (hMeprin α) of 9.42. It also gave a pIC50 (hMeprin α) of 9.35.
Compound O=C(Cc1c(-c2cc(F)c(O)c(Cl)c2)n[nH]c1-c1ccccc1)NO [Example 54, 2-[3-(3-Chloro-5-fluoro-4-hydroxy-phenyl)-5-phenyl-1H-pyrazol-4-yl]ethanehydroxamic acid] has a remaining activity at 10 µM (hMMP 9) of 86%, a remaining activity at 200 µM (hMMP 9) of 39% and a remaining activity at 10 µM (hADAM 10) of 104%. The remaining activity at 200 µM (hADAM 10) was 61%, the remaining activity at 10 µM (hADAM 17) was 68% and the remaining activity at 200 µM (hADAM 17) was 5%. For the same compound, the pKi (hMeprin β) was 9.38, the pIC50 (hMeprin β) was 9.36 and the pKi (hMeprin α) was 9.85. For the same compound, the pIC50 (hMeprin α) was 9.68.
Work on O=C(Cc1c(-c2ccccc2)n[nH]c1-c1ccccc1)NO [Example 1, 2-(3,5-Diphenyl-1H-pyrazol-4-yl)ethanehydroxamic acid] yielded a remaining activity at 10 µM (hMMP 9) of 81%, a remaining activity at 200 µM (hMMP 9) of 27% and a remaining activity at 10 µM (hADAM 10) of 73%. The remaining activity at 200 µM (hADAM 10) was 23%, the remaining activity at 10 µM (hADAM 17) was 61% and the remaining activity at 200 µM (hADAM 17) was 7%. For the same compound, the pIC50 (hMeprin β) was 6.92 and the pIC50 (hMeprin α) was 9.00.
COc1cccc(-c2n[nH]c(-c3ccccc3)c2CC(=O)NO)c1 [Example 47, 2-[3-(3-Methoxyphenyl)-5-phenyl-1H-pyrazol-4-yl]ethanehydroxamic acid] showed a remaining activity at 10 µM (hMMP 9) of 80%, a remaining activity at 200 µM (hMMP 9) of 33% and a remaining activity at 10 µM (hADAM 10) of 68%. It also gave a remaining activity at 200 µM (hADAM 10) of 8%, a remaining activity at 10 µM (hADAM 17) of 52% and a remaining activity at 200 µM (hADAM 17) of 6%. For the same compound, the pKi (hMeprin β) was 6.94, the pIC50 (hMeprin β) was 6.91 and the pKi (hMeprin α) was 9.00. For the same compound, the pIC50 (hMeprin α) was 9.00.
Compound O=C(Cc1c(-c2ccccc2)nn(Cc2ccc(Cl)c(O)c2F)c1-c1ccccc1)NO [Example 42, 2-[1-(4-Chloro-2-fluoro-3-hydroxybenzyl)-3,5-diphenyl-1H-pyrazol-4-yl]ethanehydroxamic acid] has a remaining activity at 10 µM (hMMP 9) of 70%, a remaining activity at 200 µM (hMMP 9) of 14% and a remaining activity at 10 µM (hADAM 10) of 85%. For the same compound, the remaining activity at 200 µM (hADAM 10) was 34%, the remaining activity at 10 µM (hADAM 17) was 72% and the remaining activity at 200 µM (hADAM 17) was 14%. The pKi (hMeprin β) was 8.05, the pIC50 (hMeprin β) was 8.00 and the pKi (hMeprin α) was 10.10. It also gave a pIC50 (hMeprin α) of 9.80.

From patent US20250388544A1, “HETEROAROMATIC INHIBITORS OF ASTACIN PROTEINASES” (VIVORYON THERAPEUTICS N.V., priority 2019, published 2025)
